Literature values, collected in US20260027339A1, “FLEXIBLE IMPLANTABLE DEPOTS FOR CONTROLLED DRUG RELEASE” (Foundry Therapeutics, Inc., priority 2023, published 2026).
Read-outs that look alike come from different tables or passages of the source.

Key:
[1] = at 25° C.

Row | SMILES | vapor pressure [1] | LD50 (rats; intravenous) [mg/kg] | LD50 (rats; subcutaneous) [mg/kg]
1 | OCc1ccccc1 [benzyl alcohol] | 12.53 | – | –
2 | CCCCN1CCCCC1C(=O)Nc1c(C)cccc1C (stereo not drawn) [bupivacaine] | – | 6 | 43
3 | CCOC(=O)c1ccccc1C(=O)OCC [diethyl phthalate] | 0.28 Pa | – | –

The next lines start with results.

Row | vapor pressure [1] | SMILES | LD50 (rats; intravenous) [mg/kg] | LD50 (rats; subcutaneous) [mg/kg]
4 | 0.03 Pa | O=C(OCc1ccccc1)c1ccccc1 [benzyl benzoate] | – | –
5 | 0.33 Pa | CC(=O)OCC(COC(C)=O)OC(C)=O [triacetin] | – | –
